Results: ChEMBL document CHEMBL5550106, “Recent advances in the exploration of oxazolidinone scaffolds from compound development to antibacterial agents and other bioactivities” (Eur J Med Chem, 2024)
In brackets after ≈: the same amount, converted by molar mass.

Experiments:
Escherichia coli [1] = test: Antimicrobial activity against wild type Escherichia coli MG1655 assessed as inhibition of microbial growth; format: functional
Escherichia coli [2] = test: Antibacterial activity against Escherichia coli MG1655 in presence of polymyxin B nonapeptide; format: functional
Escherichia coli [3] = test: Antibacterial activity against efflux pump-efficient Escherichia coli MG1655 assessed as bacterial growth inhibition; format: functional
Staphylococcus aureus = test: Antibacterial activity against Staphylococcus aureus assessed as reduction in bacterial growth incubated for 24 hrs by broth microdilution method; format: functional
MGC-803 = test: Antiproliferative activity against human MGC-803 cells assessed as reduction in cell growth by MTT assay; format: functional, cell-based
SK-OV-3 = test: Antiproliferative activity against human SK-OV-3 cells assessed as reduction in cell viability incubated for 24 hrs by CCK8 assay; format: functional, cell-based; conditions: SK-OV-3, 24 h
NCI-H460 = test: Antiproliferative activity against human NCI-H460 cells assessed as inhibition of cell growth by MTT assay; format: functional, cell-based
L02 = test: Antiproliferative activity against human L02 cells assessed as inhibition of cell growth incubated for 24 hrs by MTT assay; format: functional, cell-based; conditions: L02, 24 h

MIC (Escherichia coli [1]) [µg/mL] | MIC (Escherichia coli [2]) [µg/mL] | MIC (Escherichia coli [3]) [µg/mL] | MIC (Staphylococcus aureus) [µg/mL] | IC50 (MGC-803) [µM] | IC50 (SK-OV-3) [µM] | IC50 (NCI-H460) [µM] | SMILES | IC50 (L02) [µM]
64 | 64 | 64 (≈ 184 µM) | 0.5 (≈ 1.44 µM) | – | – | – | O=C1O[C@@H](CO)CN1c1ccc(-c2ccc([N+](=O)[O-])c(O)c2)c(F)c1 | –
> 64 | 16 | 16 (≈ 55.7 µM) | 1 (≈ 3.48 µM) | – | – | – | O=C1O[C@@H](CO)CN1c1ccc(-c2ccccc2)c(F)c1 | –
– | – | – | – | 7.1 | ≥ 14.9 | ≥ 15.6 | Cc1ccccc1NCC(O)COC(=O)[C@]1(C)CCC[C@]2(C)c3ccc(C(C)C)cc3CCC12 (stereo partly specified) | ≥ 28.3
– | – | – | – | 7.1 | ≥ 14.9 | ≥ 15.6 | CC(C)c1ccc2c(c1)CCC1[C@](C)(C(=O)OCC(O)CNc3ccc(Br)cc3)CCC[C@]21C (stereo partly specified) | ≥ 28.3
– | – | – | – | 7.1 | ≥ 14.9 | ≥ 15.6 | CC(C)c1ccc2c(c1)CCC1[C@](C)(C(=O)OCC(O)CNc3cccc(Cl)c3)CCC[C@]21C (stereo partly specified) | ≥ 28.3
– | – | – | – | 3.82 | ≥ 4.1 | ≥ 4.3 | CC(C)c1ccc2c(c1)CCC1[C@](C)(C(=O)OCC3CN(c4ccccc4F)C(=O)O3)CCC[C@]21C (stereo partly specified) | ≥ 26.4
– | – | – | – | 7.1 | ≥ 14.9 | ≥ 15.6 | C#Cc1cccc(NCC(O)COC(=O)[C@]2(C)CCC[C@]3(C)c4ccc(C(C)C)cc4CCC23)c1 (stereo partly specified) | ≥ 28.3
– | – | – | – | 3.82 | ≥ 4.1 | ≥ 4.3 | COc1cccc(N2CC(COC(=O)[C@]3(C)CCC[C@]4(C)c5ccc(C(C)C)cc5CCC34)OC2=O)c1 (stereo partly specified) | ≥ 26.4
– | – | – | – | 3.82 | ≥ 4.1 | ≥ 4.3 | CC(C)c1ccc2c(c1)CCC1[C@](C)(C(=O)OCC3CN(c4ccc(Cl)cc4)C(=O)O3)CCC[C@]21C (stereo partly specified) | ≥ 26.4
– | – | – | – | 3.82 | ≥ 4.1 | ≥ 4.3 | COc1ccccc1N1CC(COC(=O)[C@]2(C)CCC[C@]3(C)c4ccc(C(C)C)cc4CCC23)OC1=O (stereo partly specified) | ≥ 26.4
128 | 8 | 16 (≈ 48.3 µM) | < 0.5 | – | – | – | O=Cc1ccc(-c2ccc(N3C[C@H](CO)OC3=O)cc2F)cc1O | –
– | – | – | – | 7.1 | ≥ 14.9 | ≥ 15.6 | Cc1ccc(NCC(O)COC(=O)[C@]2(C)CCC[C@]3(C)c4ccc(C(C)C)cc4CCC23)cc1 (stereo partly specified) | ≥ 28.3
– | – | – | – | 3.82 | ≥ 4.1 | ≥ 4.3 | CC(C)c1ccc2c(c1)CCC1[C@](C)(C(=O)OCC3CN(c4cccc(Cl)c4)C(=O)O3)CCC[C@]21C (stereo partly specified) | ≥ 26.4
– | – | – | – | 7.1 | ≥ 14.9 | ≥ 15.6 | CC(C)c1ccc2c(c1)CCC1[C@](C)(C(=O)OCC(O)CNc3ccc(F)cc3)CCC[C@]21C (stereo partly specified) | ≥ 28.3
– | – | – | – | 3.82 | ≥ 4.1 | ≥ 4.3 | CC(C)c1ccc2c(c1)CCC1[C@](C)(C(=O)OCC3CN(c4ccc(F)cc4)C(=O)O3)CCC[C@]21C (stereo partly specified) | ≥ 26.4
– | – | – | – | 3.82 | ≥ 4.1 | ≥ 4.3 | Cc1cccc(N2CC(COC(=O)[C@]3(C)CCC[C@]4(C)c5ccc(C(C)C)cc5CCC34)OC2=O)c1 (stereo partly specified) | ≥ 26.4
– | – | – | – | 3.82 | ≥ 4.1 | ≥ 4.3 | CC(C)c1ccc2c(c1)CCC1[C@](C)(C(=O)OCC3CN(c4ccccc4)C(=O)O3)CCC[C@]21C (stereo partly specified) | ≥ 26.4
– | – | – | – | 3.82 | ≥ 4.1 | ≥ 4.3 | Cc1ccccc1N1CC(COC(=O)[C@]2(C)CCC[C@]3(C)c4ccc(C(C)C)cc4CCC23)OC1=O (stereo partly specified) | ≥ 26.4
– | – | – | – | 3.82 | ≥ 4.1 | ≥ 4.3 | C#Cc1cccc(N2CC(COC(=O)[C@]3(C)CCC[C@]4(C)c5ccc(C(C)C)cc5CCC34)OC2=O)c1 (stereo partly specified) | ≥ 26.4
> 64 | 64 | 16 (≈ 50.3 µM) | 4 (≈ 12.6 µM) | – | – | – | Nc1cc(-c2ccc(N3C[C@H](CO)OC3=O)cc2F)ccc1O | –

MIC (Escherichia coli [1]) [µg/mL] | MIC (Escherichia coli [2]) [µg/mL] | MIC (Escherichia coli [3]) [µg/mL] | MIC (Staphylococcus aureus) [µg/mL] | IC50 (MGC-803) [µM] | IC50 (SK-OV-3) [µM] | IC50 (NCI-H460) [µM] | SMILES | IC50 (L02) [µM]
– | – | – | – | 3.82 | ≥ 4.1 | ≥ 4.3 | COc1ccc(N2CC(COC(=O)[C@]3(C)CCC[C@]4(C)c5ccc(C(C)C)cc5CCC34)OC2=O)cc1 (stereo partly specified) | ≥ 26.4
– | – | – | – | 3.82 | ≥ 4.1 | ≥ 4.3 | CC(C)c1ccc2c(c1)CCC1[C@](C)(C(=O)OCC3CN(c4ccc(Br)cc4)C(=O)O3)CCC[C@]21C (stereo partly specified) | ≥ 26.4
> 256 | 128 | 64 (≈ 195 µM) | 32 (≈ 97.5 µM) | – | – | – | N#Cc1ccc(O)cc1-c1ccc(N2C[C@H](CO)OC2=O)cc1F | –
– | – | – | – | 7.1 | ≥ 14.9 | ≥ 15.6 | COc1cccc(NCC(O)COC(=O)[C@]2(C)CCC[C@]3(C)c4ccc(C(C)C)cc4CCC23)c1 (stereo partly specified) | ≥ 28.3
> 256 | 16 | 16 (≈ 49.8 µM) | 2 (≈ 6.23 µM) | – | – | – | O=C1O[C@@H](CO)CN1c1ccc(-c2cc(O)ccc2F)c(F)c1 | –
– | – | – | – | 7.1 | ≥ 14.9 | ≥ 15.6 | COc1ccccc1NCC(O)COC(=O)[C@]1(C)CCC[C@]2(C)c3ccc(C(C)C)cc3CCC12 (stereo partly specified) | ≥ 28.3
– | – | – | – | 3.82 | ≥ 4.1 | ≥ 4.3 | Cc1ccc(N2CC(COC(=O)[C@]3(C)CCC[C@]4(C)c5ccc(C(C)C)cc5CCC34)OC2=O)cc1 (stereo partly specified) | ≥ 26.4
> 256 | 32 | 32 (≈ 99.6 µM) | 2 (≈ 6.23 µM) | – | – | – | O=C1O[C@@H](CO)CN1c1ccc(-c2cccc(O)c2F)c(F)c1 | –
– | – | – | – | 7.1 | ≥ 14.9 | ≥ 15.6 | Cc1cccc(NCC(O)COC(=O)[C@]2(C)CCC[C@]3(C)c4ccc(C(C)C)cc4CCC23)c1 (stereo partly specified) | ≥ 28.3
> 64 | 32 | 32 (≈ 101 µM) | 4 (≈ 12.6 µM) | – | – | – | Nc1ccc(-c2ccc(N3C[C@H](CO)OC3=O)cc2F)cc1O | –
– | – | – | – | 7.1 | ≥ 14.9 | ≥ 15.6 | COc1ccc(NCC(O)COC(=O)[C@]2(C)CCC[C@]3(C)c4ccc(C(C)C)cc4CCC23)cc1 (stereo partly specified) | ≥ 28.3
– | – | – | – | 7.1 | ≥ 14.9 | ≥ 15.6 | CC(C)c1ccc2c(c1)CCC1[C@](C)(C(=O)OCC(O)CNc3cccc(F)c3)CCC[C@]21C (stereo partly specified) | ≥ 28.3
– | – | – | – | 7.1 | ≥ 14.9 | ≥ 15.6 | CC(C)c1ccc2c(c1)CCC1[C@](C)(C(=O)OCC(O)CNc3ccccc3)CCC[C@]21C (stereo partly specified) | ≥ 28.3
– | – | – | – | 7.1 | ≥ 14.9 | ≥ 15.6 | CC(C)c1ccc2c(c1)CCC1[C@](C)(C(=O)OCC(O)CNc3ccccc3F)CCC[C@]21C (stereo partly specified) | ≥ 28.3
– | – | – | – | 7.1 | ≥ 14.9 | ≥ 15.6 | CC(C)c1ccc2c(c1)CCC1[C@](C)(C(=O)OCC(O)CNc3cccc(Br)c3)CCC[C@]21C (stereo partly specified) | ≥ 28.3
– | – | – | – | 7.1 | ≥ 14.9 | ≥ 15.6 | CC(C)c1ccc2c(c1)CCC1[C@](C)(C(=O)OCC(O)CNc3ccc(Cl)cc3)CCC[C@]21C (stereo partly specified) | ≥ 28.3
– | – | – | – | 3.82 | ≥ 4.1 | ≥ 4.3 | CC(C)c1ccc2c(c1)CCC1[C@](C)(C(=O)OCC3CN(c4cccc(F)c4)C(=O)O3)CCC[C@]21C (stereo partly specified) | ≥ 26.4
> 64 | 16 | 16 (≈ 49.8 µM) | 2 (≈ 6.23 µM) | – | – | – | O=C1O[C@@H](CO)CN1c1ccc(-c2ccc(F)c(O)c2)c(F)c1 | –
– | – | – | – | 3.82 | ≥ 4.1 | ≥ 4.3 | CC(C)c1ccc2c(c1)CCC1[C@](C)(C(=O)OCC3CN(c4cccc(Br)c4)C(=O)O3)CCC[C@]21C (stereo partly specified) | ≥ 26.4
